# Results as given in patent US7973056B2, “Triazole derivative or salt thereof” (Fujifilm Finechemicals Co., Ltd, priority 2008, dated 2011).
# Key:
# [1] = test system: Candida albicans TIMM 1623; experiment: Antifungal activity test (in vivo), mouse systemic infection model; settings: for T/C (%): survival time of administration group / control group x100
# Description: With respect to compounds I-1, I-3 and I-6 obtained in Examples 1, 3 and 6 respectively, therapeutic effects at the time of subcutaneous administration of compounds I-1, I-3 and I-6 on a mouse systemic infection model by Candida albicans TIMM 1623 were tested.
# The test was carried out using 5 animals for each of the drug administration groups and Negative control group (sterile physiological saline administration group).
# Each of compounds I-1, I-3 and I-6 was dissolved in and diluted with dimethyl sulfoxide (DMSO; Wako Pure Chemical Industries, Ltd.) and then prepared into a predetermined concentration by diluting with sterile physiological saline.
# As the control experiment, Fluconazole (FLCZ, Flanos intravenous drip solution 100 mg; TOYAMA CHEMICAL CO, LTD.) diluted to a predetermined concentration with sterile physiological saline was used.
# On the next day of the receipt of animals, body weights of mice were measured and CP (crude protein) was intraperitoneally administered at a dose of 200 mg/kg based on the individual body weight, and then they were reared for 3 days.
# Cells of C. albicans TIMM 1623 cultured overnight at 35° C. on SDA (Sabouraud dextrose agar; Eiken Chemical Co., Ltd.) plate medium were suspended in sterile physiological saline and used as the Stock solution, and a portion thereof was diluted with 10% formalin (Wako Pure Chemical Industries, Ltd.). The number of cells in the diluted liquid was counted under a biological microscope using a hemocytometer, and then an inoculum was prepared by diluting the stock solution with sterile physiological saline (about 1.5×10^5 cells/ml). By inoculating 0.2 ml of this cell suspension through caudal vein, infection was induced. In this connection, the number of viable cells in the inoculum was verified by spreading the cell suspension optionally diluted with sterile physiological saline on an SDA plate medium and then culturing at 35° C. Each of the substances to be tested, control substance or sterile physiological saline was subcutaneously administered after 2 hours of the infection and for 3 days starting on the next day of infection once a day, a total of 4 times. After measuring individual body weight on the next day of infection, CP was again administered intraperitoneally at a dose of 100 mg/kg. The number of survived mice was observed and recorded for 14 days starting on the next day of infection.
# The results were shown in Table 3 below and FIGS. 1A to 1D. In the table, the administration dose of the compounds of the present invention and the comparative compound represents a mg amount per 1 kg of a mouse weight (mg/kg).
# Significant deference was tested, by 5% for both sides of the levels of significance, in accordance with the Kaplan-Meier method Logrank test (comparison of multiple groups), on the survival time distribution of each of the substances to be tested and control substance administration groups and sterile physiological saline administration group. SAS release 8.2 (SAS Institute Japan) was used in the Kaplan-Meier method Logrank test. (T/C(%)=[survival time of administration group (integrated value)/survival time of control group (integrated value)]×100)
# [2] = test system: Candida albicans ATCC 10231; experiment: Antifungal activity test (in vitro), MIC; type: cell-based; settings: ATCC10231
# Description: (§1) Minimum inhibitory concentration (MIC) of each of the compounds obtained in Examples 1 to 12 was measured for respective fungi at MOS Pharm Service, by the methods described in Antimicrobial Agents and Chemotherapy, vol. 3, pp. 40-48 (1973), Antimicrobial Agents and Chemotherapy, vol. 33, pp. 215-222 (1989) and Antimicrobial Agents and Chemotherapy, vol. 38, pp. 2362-2368 (1994). The measuring conditions are shown in the following. In this case, Voriconazol was used as a comparative compound. Candida albicans ATCC 10231 and ATCC 44858; Cultured at 37° C. for 20 hours using fluid Sabouraud medium, and this was used as a cell suspension. Each of the compounds of the invention was adjusted to a concentration of 1% by weight using dimethyl sulfoxide (DMSO) and a medium similar to the respective medium used in the above-mentioned fungal culture, having a final concentration of from 0.001 to 100 μg/ml, was prepared. Each of the inoculation cell suspensions prepared by the above-mentioned methods was inoculated onto this agar plate. […] In this connection, Voriconazol was used as the comparative compound C-1.
# [3] = test system: Trichophyton rubrum ATCC 10218; experiment: Antifungal activity test (in vitro), MIC; type: cell-based; settings: ATCC10218
# Description: as §1, with “Trichophyton rubrum” for “Candida albicans”, “10218;” for “10231 and ATCC 44858;”, “28°” for “37°”, “3 days” for “20 hours”
structure (smiles),measurement,setting,value
"C[C@@H](N1CC=C(c2ccccn2)CC1)[C@](O)(Cn1cncn1)c1ccc(F)cc1F [I-3, (2R,3R)-2-(2,4-difluorophenyl)-3-(3′,6′-dihydro-2,4′-bipyridin-1′(2′H)-yl)-1-(1,2,4-triazol-1-yl)butan-2-ol]",survival rate,"[1]; 0.1 mg/kg s.c., day 0",100
same,survival rate,"[1]; 0.1 mg/kg s.c., day 1",100
same,survival rate,"[1]; 0.1 mg/kg s.c., day 2",100
same,survival rate,"[1]; 0.1 mg/kg s.c., day 3",60
same,survival rate,"[1]; 0.1 mg/kg s.c., day 4",60
same,survival rate,"[1]; 0.1 mg/kg s.c., day 5",60
same,survival rate,"[1]; 0.1 mg/kg s.c., day 6",60
same,survival rate,"[1]; 0.1 mg/kg s.c., day 7",40
same,survival rate,"[1]; 0.1 mg/kg s.c., day 8",40
same,survival rate,"[1]; 0.1 mg/kg s.c., day 9",40
same,survival rate,"[1]; 0.1 mg/kg s.c., day 10",40
same,survival rate,"[1]; 0.1 mg/kg s.c., day 11",40
same,survival rate,"[1]; 0.1 mg/kg s.c., day 12",40
same,survival rate,"[1]; 0.1 mg/kg s.c., day 13",40
same,survival rate,"[1]; 0.1 mg/kg s.c., day 14",40
same,T/C (%),[1]; 0.1 mg/kg s.c.,139%
same,survival rate,"[1]; 1 mg/kg s.c., day 0",100
same,survival rate,"[1]; 1 mg/kg s.c., day 1",100
same,survival rate,"[1]; 1 mg/kg s.c., day 2",100
same,survival rate,"[1]; 1 mg/kg s.c., day 3",80
same,survival rate,"[1]; 1 mg/kg s.c., day 4",80
same,survival rate,"[1]; 1 mg/kg s.c., day 5",60
same,survival rate,"[1]; 1 mg/kg s.c., day 6",40
same,survival rate,"[1]; 1 mg/kg s.c., day 7",40
same,survival rate,"[1]; 1 mg/kg s.c., day 8",40
same,survival rate,"[1]; 1 mg/kg s.c., day 9",40
same,survival rate,"[1]; 1 mg/kg s.c., day 10",40
same,survival rate,"[1]; 1 mg/kg s.c., day 11",40
same,survival rate,"[1]; 1 mg/kg s.c., day 12",40
same,survival rate,"[1]; 1 mg/kg s.c., day 13",40
same,survival rate,"[1]; 1 mg/kg s.c., day 14",40
same,T/C (%),[1]; 1 mg/kg s.c.,142%
same,survival rate,"[1]; 10 mg/kg s.c., day 0",100
same,survival rate,"[1]; 10 mg/kg s.c., day 1",100
same,survival rate,"[1]; 10 mg/kg s.c., day 2",100
same,survival rate,"[1]; 10 mg/kg s.c., day 3",60
same,survival rate,"[1]; 10 mg/kg s.c., day 4",60
same,survival rate,"[1]; 10 mg/kg s.c., day 5",60
same,survival rate,"[1]; 10 mg/kg s.c., day 6",60
same,survival rate,"[1]; 10 mg/kg s.c., day 7",40
same,survival rate,"[1]; 10 mg/kg s.c., day 8",20
same,survival rate,"[1]; 10 mg/kg s.c., day 9",20
same,survival rate,"[1]; 10 mg/kg s.c., day 10",20
same,survival rate,"[1]; 10 mg/kg s.c., day 11",20
same,survival rate,"[1]; 10 mg/kg s.c., day 12",20
same,survival rate,"[1]; 10 mg/kg s.c., day 13",20
same,survival rate,"[1]; 10 mg/kg s.c., day 14",20
same,T/C (%),[1]; 10 mg/kg s.c.,116%
same,MIC,[2],0.3 µg/mL
same,MIC,[3],0.3 µg/mL
"C[C@@H](N1CC=C(c2ccc(Cl)cn2)CC1)[C@](O)(Cn1cncn1)c1ccc(F)cc1F [I-6, (2R,3R)-3-(5-chloro-3′,6′-dihydro-2,4′-bipyridin-1′(2′H)-yl)-2-(2,4-difluorophenyl)-1-(1,2,4-triazol-1-yl)butan-2-ol]",survival rate,"[1]; 0.1 mg/kg s.c., day 0",100
same,survival rate,"[1]; 0.1 mg/kg s.c., day 1",100
same,survival rate,"[1]; 0.1 mg/kg s.c., day 2",100
same,survival rate,"[1]; 0.1 mg/kg s.c., day 3",100
same,survival rate,"[1]; 0.1 mg/kg s.c., day 4",100
same,survival rate,"[1]; 0.1 mg/kg s.c., day 5",100
same,survival rate,"[1]; 0.1 mg/kg s.c., day 6",100
same,survival rate,"[1]; 0.1 mg/kg s.c., day 7",80
same,survival rate,"[1]; 0.1 mg/kg s.c., day 8",60
same,survival rate,"[1]; 0.1 mg/kg s.c., day 9",60
same,survival rate,"[1]; 0.1 mg/kg s.c., day 10",60
same,survival rate,"[1]; 0.1 mg/kg s.c., day 11",60
same,survival rate,"[1]; 0.1 mg/kg s.c., day 12",60
same,survival rate,"[1]; 0.1 mg/kg s.c., day 13",60
same,survival rate,"[1]; 0.1 mg/kg s.c., day 14",60
same,T/C (%),[1]; 0.1 mg/kg s.c.,194%
same,survival rate,"[1]; 1 mg/kg s.c., day 0",100
same,survival rate,"[1]; 1 mg/kg s.c., day 1",100
same,survival rate,"[1]; 1 mg/kg s.c., day 2",100
same,survival rate,"[1]; 1 mg/kg s.c., day 3",100
same,survival rate,"[1]; 1 mg/kg s.c., day 4",100
same,survival rate,"[1]; 1 mg/kg s.c., day 5",100
same,survival rate,"[1]; 1 mg/kg s.c., day 6",100
same,survival rate,"[1]; 1 mg/kg s.c., day 7",100
same,survival rate,"[1]; 1 mg/kg s.c., day 8",100
same,survival rate,"[1]; 1 mg/kg s.c., day 9",100
same,survival rate,"[1]; 1 mg/kg s.c., day 10",100
same,survival rate,"[1]; 1 mg/kg s.c., day 11",100
same,survival rate,"[1]; 1 mg/kg s.c., day 12",100
same,survival rate,"[1]; 1 mg/kg s.c., day 13",100
same,survival rate,"[1]; 1 mg/kg s.c., day 14",100
same,T/C (%),[1]; 1 mg/kg s.c.,242%
same,survival rate,"[1]; 10 mg/kg s.c., day 0",100
same,survival rate,"[1]; 10 mg/kg s.c., day 1",100
same,survival rate,"[1]; 10 mg/kg s.c., day 2",100
same,survival rate,"[1]; 10 mg/kg s.c., day 3",100
same,survival rate,"[1]; 10 mg/kg s.c., day 4",100
same,survival rate,"[1]; 10 mg/kg s.c., day 5",100
same,survival rate,"[1]; 10 mg/kg s.c., day 6",100
same,survival rate,"[1]; 10 mg/kg s.c., day 7",100
same,survival rate,"[1]; 10 mg/kg s.c., day 8",100
same,survival rate,"[1]; 10 mg/kg s.c., day 9",100
same,survival rate,"[1]; 10 mg/kg s.c., day 10",100
same,survival rate,"[1]; 10 mg/kg s.c., day 11",100
same,survival rate,"[1]; 10 mg/kg s.c., day 12",100
same,survival rate,"[1]; 10 mg/kg s.c., day 13",100
same,survival rate,"[1]; 10 mg/kg s.c., day 14",100
same,T/C (%),[1]; 10 mg/kg s.c.,242%
same,MIC,[2],0.01 µg/mL
